{"source": "patent US12611406B2", "about": "“Oxopiperazine derivatives for the treatment of cancer” (Inthera Bioscience AG, priority 2020, dated 2026)", "key": {"BT-549": {"system": "BT-549", "assay": "S-phase arrest (cell cycle FACS)", "assay_type": "cell-based", "parameters": "key: “+” (present); “−” (absent)", "conditions": "Rb x, p53 x", "method": "(§1) Cell cycle phase distribution in control (C) cells or cells treated at 20 or 200 nM Compound 1 for 24 hours (24 h) determined by fluorescence activated cell sorting (FACS) analysis, and detection of histone H2A variant H2A.X phosphorylation (γH2A.X, also referred to herein as gamma H2A.X or γH2A.X) by Western blot as DNA damage biomarker.\n(§2) In table 1, “wt”=wild-type; “x”=cells harboring Rb and p53 deficiencies; “+” (present) or “−” (absent) indicate the arrest (i.e. accumulation) of cells in S-phase triggered by Compound 1, which coincided with accumulation of the DNA damage marker phosphorylated gamma H2AX (γH2AX; see FIG. 3A). These events are followed by activation of caspases 3 and 7 as indicators of cell apoptosis as indicated by “+” (present) or “−” (absent). In cancer cells with intact Rb and/or p53 functions (wt=wild-type), Compound 1 induced growth arrest but not a substantial increase of cells in S-phase (=S-phase arrest). Upon release of treatment, such cells are able to proliferate again."}, "DU-145": {"system": "DU-145", "assay": "S-phase arrest (cell cycle FACS)", "assay_type": "cell-based", "parameters": "key: “+” (present); “−” (absent)", "conditions": "Rb x, p53 x", "method": "as §1, §2"}, "Hut-78": {"system": "Hut-78", "assay": "S-phase arrest (cell cycle FACS)", "assay_type": "cell-based", "parameters": "key: “+” (present); “−” (absent)", "conditions": "Rb x, p53 x", "method": "as §1, §2"}, "LNCaP": {"system": "LNCaP", "assay": "S-phase arrest (cell cycle FACS)", "assay_type": "cell-based", "parameters": "key: “+” (present); “−” (absent)", "conditions": "Rb wt, p53 wt", "method": "as §1, §2"}, "NCI-H146": {"system": "NCI-H146", "assay": "S-phase arrest (cell cycle FACS)", "assay_type": "cell-based", "parameters": "key: “+” (present); “−” (absent)", "conditions": "Rb x, p53 x", "method": "as §1, §2"}, "NCI-H209": {"system": "NCI-H209", "assay": "S-phase arrest (cell cycle FACS)", "assay_type": "cell-based", "parameters": "key: “+” (present); “−” (absent)", "conditions": "Rb x, p53 x", "method": "as §1, §2"}, "NCI-H660": {"system": "NCI-H660", "assay": "S-phase arrest (cell cycle FACS)", "assay_type": "cell-based", "parameters": "key: “+” (present); “−” (absent)", "conditions": "Rb x, p53 x", "method": "as §1, §2"}, "NCI-H69": {"system": "NCI-H69", "assay": "S-phase arrest (cell cycle FACS)", "assay_type": "cell-based", "parameters": "key: “+” (present); “−” (absent)", "conditions": "Rb x, p53 x", "method": "as §1, §2"}, "NCI-H82": {"system": "NCI-H82", "assay": "S-phase arrest (cell cycle FACS)", "assay_type": "cell-based", "parameters": "key: “+” (present); “−” (absent)", "conditions": "Rb x, p53 x", "method": "as §1, §2"}, "Y-79": {"system": "Y-79", "assay": "S-phase arrest (cell cycle FACS)", "assay_type": "cell-based", "parameters": "key: “+” (present); “−” (absent)", "conditions": "Rb x, p53 wt", "method": "as §1, §2"}, "p300": {"system": "p300", "assay": "Western blot of p53 acetylated by p300 on K382 in LNCaP cells", "assay_type": "cell-based", "method": "Top panel: Cell cycle distribution in LNCap cells treated with siRNA (2 bars on the right) in comparison to control LNCaP cells without siRNA treatment (2 bars in the middle), in the absence (−) or presence (+) of Compound 1 for 24 h at the indicated concentration. For comparison, DU-145 cells harboring a combined Rb1 and p53 loss-of-function are included (2 bars on the left). Lower panel: Western blot analysis according to the same experimental conditions as given for the top panel."}, "[1]": {"assay": "28-day once weekly oral repeated-dose DRF study in CD-1 mice (mesylate salt), plasma", "assay_type": "in vivo", "conditions": "male; for Tmax / Cmax / AUC(0-t) / half-life: CD-1, mouse, plasma, po; for AUC(0-t): read-out: AUC0-8h", "method": "This study explored the PK of Compound 1 after once weekly oral administration of 300 and 600 mg/kg/week for 4 consecutive weeks to male CD-1 mice.\nCompound 1 (mesylate salt) was administered in 4 weekly doses by oral gavage to groups of male CD-1 mice (n=3/group) at dose levels of 300 and 600 mg/kg bodyweight per week. A suspension of 0.5% methylcellulose (w/v) in sterile water served as vehicle. Blood samples for PK analysis were collected after the second (Day 8) and fourth (Day 22) dosing at pre-dose, 0.25, 0.5, 1, 2, 4, 8, and 24 hours (the latter time point only after the 2nd dose) after administration.\nTotal plasma concentrations of Compound 1 were analyzed using a qualified LC-MS/MS method."}, "[2]": {"assay": "14-day daily oral repeated-dose DRF study in Beagle dogs (citrate salt)", "assay_type": "in vivo", "conditions": "for Cmax / Tmax / half-life: both sexes, Beagle, dog, plasma, po", "method": "The objective of this dose-range-finding study was to select the dose levels for a potential subsequent toxicity study of Compound 1 by oral administration to Beagle dogs.\nCompound 1 (citrate salt) administration in this study was intended once daily for up to 14 consecutive days by oral gavage to groups of naïve Beagle dogs (n=1/sex/group) at dose levels of 0.1, 0.3, 1, 3, 6, or 12 mg Compound 1 per kg bodyweight and day in 0.5% methylcellulose by using a staggered approach. The actual dose levels and durations of dosing were flexibly adapted according to PK and signs of tolerability. For TK evaluation blood samples were collected from each dog on Days 1 and 14 at pre-dose, 1, 2, 4, 8, 12, and 24 hours post-dose."}, "[3]": {"conditions": "300 mg/kg, 300 mg/kg/week, 2nd dose (Week 2)"}, "[4]": {"conditions": "300 mg/kg, 300 mg/kg/week, 4th dose (Week 4)"}, "[5]": {"conditions": "600 mg/kg, 600 mg/kg/week, 2nd dose (Week 2)"}, "[6]": {"conditions": "600 mg/kg, 600 mg/kg/week, 4th dose (Week 4)"}}, "note": "Read-outs that look alike come from different tables or passages of the source.", "data": [{"smiles": "CC(C)C[C@@H]1NCCN([C@@H](CC(C)C)C(=O)N2CCC3(C[C@@H]2C)OCC(CN2CCCC2)CO3)C1=O", "note": "(stereo partly drawn) [Compound 1, (S)-3-isobutyl-1-((S)-4-methyl-1-((S)-8-methyl-3-(pyrrolidin-1-ylmethyl)-1,5-dioxa-9-azaspiro[5.5]undecan-9-yl)-1-oxopentan-2-yl)piperazin-2-one]", "values": [{"measurement": "S-Phase Arrest", "setting": "BT-549", "result": "+"}, {"measurement": "S-Phase Arrest", "setting": "DU-145", "result": "+"}, {"measurement": "S-Phase Arrest", "setting": "Hut-78", "result": "+"}, {"measurement": "S-Phase Arrest", "setting": "LNCaP", "result": "−"}, {"measurement": "S-Phase Arrest", "setting": "NCI-H146", "result": "+"}, {"measurement": "S-Phase Arrest", "setting": "NCI-H209", "result": "+"}, {"measurement": "S-Phase Arrest", "setting": "NCI-H660", "result": "+"}, {"measurement": "S-Phase Arrest", "setting": "NCI-H69", "result": "+"}, {"measurement": "S-Phase Arrest", "setting": "NCI-H82", "result": "+"}, {"measurement": "S-Phase Arrest", "setting": "Y-79", "result": "−"}, {"measurement": "amount of p53 acetylated by p300 on K382", "setting": "p300; control LNCaP cells", "result": "increased"}, {"measurement": "HAT/KAT activity of p300", "setting": "p300; inferred from p53 K382 acetylation", "result": "not inhibited"}, {"measurement": "Tmax", "setting": "[1]; 300 mg/kg, 300 mg/kg/week, 2nd dose", "result": 1, "unit": "h"}, {"measurement": "Cmax", "setting": "[1]; [3]", "result": 8130, "unit": "ng/mL"}, {"measurement": "AUC(0-t)", "setting": "[1]; [3]", "result": 13600, "unit": "ng·h/mL"}, {"measurement": "Tmax", "setting": "[1]; 300 mg/kg, 300 mg/kg/week, 4th dose", "result": 1.3, "unit": "h"}, {"measurement": "Cmax", "setting": "[1]; [4]", "result": 8370, "unit": "ng/mL"}, {"measurement": "AUC(0-t)", "setting": "[1]; [4]", "result": 38200, "unit": "ng·h/mL"}, {"measurement": "Tmax", "setting": "[1]; 600 mg/kg, 600 mg/kg/week, 2nd dose", "result": 5.7, "unit": "h"}, {"measurement": "Cmax", "setting": "[1]; [5]", "result": 13400, "unit": "ng/mL"}, {"measurement": "AUC(0-t)", "setting": "[1]; [5]", "result": 47800, "unit": "ng·h/mL"}, {"measurement": "Tmax", "setting": "[1]; 600 mg/kg, 600 mg/kg/week, 4th dose", "result": 0.5, "unit": "h"}, {"measurement": "Cmax", "setting": "[1]; [6]", "result": 28800, "unit": "ng/mL"}, {"measurement": "AUC(0-t)", "setting": "[1]; [6]", "result": 125000, "unit": "ng·h/mL"}, {"measurement": "half-life", "setting": "[1]; 300 mg/kg/week, 2nd dose", "result": 4.1, "unit": "h"}, {"measurement": "half-life", "setting": "[1]; 600 mg/kg/week, 4th dose", "result": 85.8, "unit": "h"}, {"measurement": "tolerability", "setting": "[1]; once weekly orally for 4 weeks at 300 and 600 mg/kg/week", "result": "well tolerated"}, {"measurement": "accumulation of drug exposure (Day 1 versus Day 14)", "setting": "[2]; 0.1 mg/kg/day", "result": "no accumulation with time"}, {"measurement": "Total AUC(o-inf)", "setting": "[2]; 0.1 mg/kg/day, Day 1", "result": 5.6, "unit": "ng·h/mL"}, {"measurement": "accumulation of drug exposure (Day 1 versus Day 14)", "setting": "[2]; 0.3 mg/kg/day", "result": "slight increase over time"}, {"measurement": "Total AUC(o-inf)", "setting": "[2]; 0.3 mg/kg/day, Day 1", "result": 13.8, "unit": "ng·h/mL"}, {"measurement": "Total AUC(o-inf)", "setting": "[2]; 1 mg/kg/day, Day 1", "result": 63.8, "unit": "ng·h/mL"}, {"measurement": "Total AUC(o-inf)", "setting": "[2]; 3 mg/kg/day, Day 1", "result": 171.6, "unit": "ng·h/mL"}, {"measurement": "Total AUC(o-inf)", "setting": "[2]; 6 mg/kg/day, Day 1", "result": 734.8, "unit": "ng·h/mL"}, {"measurement": "Total AUC(o-inf)", "setting": "[2]; 12 mg/kg/day, Day 1", "result": 936.4, "unit": "ng·h/mL"}, {"measurement": "Cmax", "setting": "[2]; 0.1 mg/kg/day, Day 1, read-out: mean Cmax plasma levels", "result": 0.6, "unit": "ng/mL"}, {"measurement": "Cmax", "setting": "[2]; 0.1 mg/kg/day, Day 14, read-out: group mean Cmax plasma levels", "result": 0.4, "unit": "ng/mL"}, {"measurement": "Cmax", "setting": "[2]; 0.3 mg/kg/day, Day 1, read-out: mean Cmax plasma levels", "result": 2.3, "unit": "ng/mL"}, {"measurement": "Cmax", "setting": "[2]; 0.3 mg/kg/day, Day 14, read-out: group mean Cmax plasma levels", "result": 3.8, "unit": "ng/mL"}, {"measurement": "Cmax", "setting": "[2]; 1 mg/kg/day, Day 1, read-out: mean Cmax plasma levels", "result": 8.6, "unit": "ng/mL"}, {"measurement": "Cmax", "setting": "[2]; 3 mg/kg/day, Day 1, read-out: mean Cmax plasma levels", "result": 23.8, "unit": "ng/mL"}, {"measurement": "Cmax", "setting": "[2]; 6 mg/kg/day, Day 1, read-out: mean Cmax plasma levels", "result": 114, "unit": "ng/mL"}, {"measurement": "Cmax", "setting": "[2]; 12 mg/kg/day, Day 1, read-out: mean Cmax plasma levels", "result": 182, "unit": "ng/mL"}, {"measurement": "Tmax", "setting": "[2]; 0.1 and 0.3 mg/kg/day, Day 14", "result": 1, "unit": "h"}, {"measurement": "half-life", "setting": "[2]; 0.1 and 0.3 mg/kg/day, Day 14, read-out: terminal elimination half-lives", "result": "4.7 to 5.5", "unit": "h"}, {"measurement": "Tmax", "setting": "[2]; all doses, Day 1", "result": "1 to 2", "unit": "h"}, {"measurement": "half-life", "setting": "[2]; all doses, Day 1, read-out: elimination half-life", "result": "3.4 to 6.2", "unit": "h"}, {"measurement": "tolerability", "setting": "[2]; daily oral 0.1 and 0.3 mg/kg/day for 14 days and 1 mg/kg/day for 6 days", "result": "well-tolerated"}, {"measurement": "tolerability", "setting": "[2]; daily oral 3, 6, and 12 mg/kg/day for 14 days", "result": "not well-tolerated"}]}]}
